The experiment has as its target T1, Human PDE2A3 enzyme (Homo sapiens, UniProt O00408).
T1 construct: transfected with the full-length gene; His-tag; made in house; host or cells: Sf9 insect cells
The experiment can be described thus: PDE Enzyme Inhibition Assay (SPA, [3H]cGMP). The experiment is classed as biochemical. The following applies: compound 10 μM; substrate [3H]cGMP 77 nM; 60 min at room temperature; duplicate. The procedure:
Human PDE2A3 enzyme was generated from Sf9 cells transfected with the full-length gene. The extracted enzyme from Sf9 cells was purified by His-tag affinity column and gel filtration. The enzyme was stored at −70° C. until use. PDE activity was measured using a SPA (Scintillation Proximity Assay) (GE Healthcare). To evaluate the inhibitory activity, 10 μl of serial diluted compounds were incubated with 20 μl of PDE enzyme in assay buffer (50 mM HEPES-NaOH, 8.3 mM MgCl2, 1.7 mM EGTA, 0.1% BSA (pH 7.4)) at room temperature for 30 min. Final concentration of DMSO in the assay was 1%. The evaluation of the compounds were performed in duplicate in 96-well half-area plates (Corning) or 384-well OptiPlate (PerkinElmer). To start the reaction, 10 μl of substrate [^3H] cGMP (77 nM, PerkinElmer) was added for a final assay volume of 40 μl. After 60 min incubation at room temperature, 20 μl of yttrium SPA beads (20 mg/ml) containing zinc sulphate was added thereto to terminate the PDE reaction. After being settled for additional 1 hr, the assay plates were counted in a scintillation counter (PerkinElmer) to allow calculation of inhibition rate. Inhibition rate was calculated on the basis of 0% control wells with enzyme and DMSO, and 100% control wells without enzyme.
T1 sequence (O00408 whole entry): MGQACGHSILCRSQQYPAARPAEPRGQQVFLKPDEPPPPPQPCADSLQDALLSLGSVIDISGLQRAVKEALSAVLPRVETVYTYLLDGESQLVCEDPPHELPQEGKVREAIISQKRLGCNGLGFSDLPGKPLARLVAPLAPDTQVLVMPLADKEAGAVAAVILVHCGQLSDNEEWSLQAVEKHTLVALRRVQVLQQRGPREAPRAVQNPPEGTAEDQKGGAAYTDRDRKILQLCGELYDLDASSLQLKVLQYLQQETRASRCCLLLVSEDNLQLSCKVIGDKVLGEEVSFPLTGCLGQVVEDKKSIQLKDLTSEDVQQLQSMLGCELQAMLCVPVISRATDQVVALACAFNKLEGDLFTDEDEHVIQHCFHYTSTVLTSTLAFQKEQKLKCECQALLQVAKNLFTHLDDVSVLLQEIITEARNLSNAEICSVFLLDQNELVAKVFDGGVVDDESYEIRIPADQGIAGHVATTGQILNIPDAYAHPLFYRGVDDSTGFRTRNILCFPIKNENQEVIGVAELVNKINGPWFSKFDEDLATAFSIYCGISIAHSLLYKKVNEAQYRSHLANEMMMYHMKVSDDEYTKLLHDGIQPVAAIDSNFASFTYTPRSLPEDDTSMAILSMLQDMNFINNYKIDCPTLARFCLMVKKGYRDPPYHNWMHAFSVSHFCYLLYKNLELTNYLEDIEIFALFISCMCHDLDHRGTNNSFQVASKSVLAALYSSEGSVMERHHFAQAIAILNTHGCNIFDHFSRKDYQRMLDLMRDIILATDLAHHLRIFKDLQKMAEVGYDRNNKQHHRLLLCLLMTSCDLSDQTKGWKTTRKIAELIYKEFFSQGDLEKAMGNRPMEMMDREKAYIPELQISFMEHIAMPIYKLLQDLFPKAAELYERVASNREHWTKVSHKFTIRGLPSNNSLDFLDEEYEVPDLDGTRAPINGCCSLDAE
`CCC(Oc1ccc(OC(F)(F)F)cc1)C(=O)N1CC(=O)Nc2cccnc21` (centres unmarked) [Example 3, optical active form of 4-(2-(4-(trifluoromethoxy)phenoxy)butanoyl)-3,4-dihydropyrido[2,3-b]pyrazin-2 (1H)-one] had an inhibition at 10 µM of 100%.
In turn, `CCC(Oc1ccc(OC(F)(F)F)cc1)C(=O)N1CC(=O)Nc2cc(C)cnc21` (centres unmarked) [Example 6, 7-methyl-4-(2-(4-(trifluoromethoxy)phenoxy)butanoyl)-3,4-dihydropyrido[2,3-b]pyrazin-2(1H)-one] returned an inhibition at 10 µM of 100%.
Consider `CCC(Oc1ccc(OC(F)(F)F)cc1)C(=O)N1CC(=O)Nc2ccc(-c3ccn(C)n3)nc21` (centres unmarked) [Example 132, optical active form of 6-(1-methyl-1H-pyrazol-3-yl)-4-(2-(4-(trifluoromethoxy)phenoxy)butanoyl)-3,4-dihydropyrido[2,3-b]pyrazin-2(1H)-one], for which the inhibition at 10 µM worked out at 100%.
`CCC(Oc1ccc(C(F)(F)F)cc1)C(=O)N1CC(=O)Nc2cccnc21` (centres unmarked) [Example 4, 4-(2-(4-(trifluoromethyl)phenoxy)butanoyl)-3,4-dihydropyrido[2,3-b]pyrazin-2(1H)-one] returned an inhibition at 10 µM of 98%.
Regarding `CCC(Oc1ccc(S(=O)(=O)C(F)(F)F)cc1)C(=O)N1CC(=O)Nc2cccnc21` (centres unmarked) [Example 75, 4-(2-(4-((trifluoromethyl)sulfonyl)phenoxy)butanoyl)-3,4-dihydropyrido[2,3-b]pyrazin-2(1H)-one], 10 µM produced 95% inhibition.
As for `CCC(Oc1ccc(OC(F)(F)F)cc1)C(=O)N1CC(=O)Nc2ccc(C)nc21` (centres unmarked) [Example 28, optical active form of 6-methyl-4-(2-(4-(trifluoromethoxy)phenoxy)butanoyl)-3,4-dihydropyrido[2,3-b]pyrazin-2(1H)-one], the inhibition at 10 µM is 99%.
`CCC(Oc1ccc(C(C)C)cc1)C(=O)N1CC(=O)Nc2cccnc21` (centres unmarked) [Example 47, 4-(2-(4-isopropylphenoxy)butanoyl)-3,4-dihydropyrido[2,3-b]pyrazin-2(1H)-one] gave an inhibition at 10 µM of 98%.
In turn, `CCC(Nc1ccc(OC(F)(F)F)cc1)C(=O)N1CC(=O)Nc2cccnc21` (centres unmarked) [Example 23, 4-(2-((4-(trifluoromethoxy)phenyl)amino)butanoyl)-3,4-dihydropyrido[2,3-b]pyrazin-2(1H)-one] showed an inhibition at 10 µM of 97%.
As for `O=C1CN(C(=O)[C@@H]2CCCN2c2ccc(OC(F)(F)F)cc2)c2ncccc2N1` [Example 25, 4-(1-(4-(trifluoromethoxy)phenyl)prolyl)-3,4-dihydropyrido[2,3-b]pyrazin-2(1H)-one], the figure is 96%; as for `COCCC(Oc1ccc(OC(F)(F)F)cc1)C(=O)N1CC(=O)Nc2cccnc21` (centres unmarked) [Example 18, 4-(4-methoxy-2-(4-(trifluoromethoxy)phenoxy)butanoyl)-3,4-dihydropyrido[2,3-b]pyrazin-2(1H)-one], 99%.
Take `CC(C)C(Oc1ccc(C(F)(F)F)cc1)C(=O)N1CC(=O)Nc2cccnc21` (centres unmarked) [Example 21, 4-(3-methyl-2-(4-(trifluoromethyl)phenoxy)butanoyl)-3,4-dihydropyrido[2,3-b]pyrazin-2(1H)-one]: the inhibition at 10 µM was determined as 98%.
As for `COc1cnc2c(c1)NC(=O)CN2C(=O)C(Oc1ccc(-n2cccn2)c(F)c1)C(C)C` (centres unmarked) [Example 135, 4-(2-(3-fluoro-4-(1H-pyrazol-1-yl)phenoxy)-3-methylbutanoyl)-7-methoxy-3,4-dihydropyrido[2,3-b]pyrazin-2(1H)-one], the figure is 99%; as for `CCC(Oc1ccc(-n2cccn2)cc1)C(=O)N1CC(=O)Nc2cccnc21` (centres unmarked) [Example 55, 4-(2-(4-(1H-pyrazol-1-yl)phenoxy)butanoyl)-3,4-dihydropyrido[2,3-b]pyrazin-2(1H)-one], 99%.
In turn, `CCC(Oc1ccc(OC(F)(F)F)cc1)C(=O)N1CC(=O)Nc2c(C)ccnc21` (centres unmarked) [Example 29, optical active form of 8-methyl-4-(2-(4-(trifluoromethoxy)phenoxy)butanoyl)-3,4-dihydropyrido[2,3-b]pyrazin-2(1H)-one] gave an inhibition at 10 µM of 99%.

Values taken from US9527841B2, “Substituted pyrido[2,3-b]pyrazines as phosphodiesterase 2A inhibitors” (Takeda Pharmaceutical Company Limited, priority 2012, dated 2016).
